Experimental data from patent US20240174655A1, “INDAZOLE DERIVATIVES AS ANTAGONISTS OF THE MUSCARINIC ACETYLCHOLINE RECEPTOR M4” (Vanderbilt University, priority 2021, published 2024).
Read-outs that look alike come from different tables or passages of the source.

Columns and labels:
Human M4 = biological target: T1, Human M4 (Homo sapiens, UniProt P08173); experiment: mAChR M4 cell-based functional assay (calcium flux, EC80 acetylcholine response)
T1 construct: expressed in transfected cells; host or cells: CHO-K1 (Chinese hamster ovary, ATCC), stably expressing M4 and Gqi5
T1 sequence (P08173 1-479): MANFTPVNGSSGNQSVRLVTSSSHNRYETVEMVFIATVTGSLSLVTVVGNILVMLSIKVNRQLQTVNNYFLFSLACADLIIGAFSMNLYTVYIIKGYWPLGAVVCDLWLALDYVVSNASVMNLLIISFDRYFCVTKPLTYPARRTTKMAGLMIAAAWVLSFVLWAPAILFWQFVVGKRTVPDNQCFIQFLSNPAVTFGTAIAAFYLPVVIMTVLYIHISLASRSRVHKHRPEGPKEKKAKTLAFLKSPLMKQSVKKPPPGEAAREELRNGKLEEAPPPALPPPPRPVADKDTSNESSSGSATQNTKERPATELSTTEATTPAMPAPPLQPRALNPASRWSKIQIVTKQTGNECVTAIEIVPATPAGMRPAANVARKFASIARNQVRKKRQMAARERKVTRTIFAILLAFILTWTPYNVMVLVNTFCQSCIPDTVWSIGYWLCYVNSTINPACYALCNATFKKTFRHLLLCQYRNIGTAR
Experimental: Human or rat M4 cDNA, along with the chimeric G protein Gqi5, were transfected into Chinese hamster ovary (CHO-K1) cells purchased from the American Type Culture Collection using Lipofectamine2000. M4/Gqi5/CHO cells were grown in Ham's F-12 medium containing […] heat-inactivated fetal bovine serum (FBS), 20 mM HEPES, 500 μg/mL G418 sulfate, and 200 μg/mL Hygromycin B.
For high throughput measurement of agonist-evoked increases in intracellular calcium, CHO-K1 cells stably expressing muscarinic receptors were plated in growth medium lacking G418 and hygromycin at 15,000 cells/20 μL/well in Greiner 384-well black-walled, tissue culture (TC)-treated, clear-bottom plates (VWR). Cells were incubated overnight at 37° C. and 500 CO2. […] Compound master plates were formatted in a 10 point concentration-response curve (CRC) format (1:3 dilutions) in 100% DMSO with a starting concentration of 10 or 1 mM using a BRAVO liquid handler (Agilent). Test compound CRCs were then transferred to daughter plates (240 nL) using the Echo acoustic plate reformatter (Labcyte, Sunnyvale, CA) and then diluted into assay buffer (40 μL) to a 2× stock using a Thermo Fisher Combi (Thermo Fisher Scientific, Waltham, MA).
Calcium flux was measured using the Functional Drug Screening System (FDSS) 6000 or 7000 (Hamamatsu Corporation, Tokyo, Japan) as an increase in the fluorescent static ratio. Compounds were applied to cells (20 μL, 2×) using the automated system of the FDSS at 2 seconds into the protocol and the data were collected at 1 Hz. […] Agonist activity was analyzed as a concentration-dependent increase in calcium mobilization upon compound addition. Positive allosteric modulator activity was analyzed as a concentration-dependent increase in the EC20 acetylcholine response. Antagonist activity was analyzed as a concentration-dependent decrease in the EC80 acetylcholine response; for the purposes of the tables herein, an IC50 (inhibitory concentration 50) was calculated as a concentration-dependent decrease of the response elicited by an EC80 concentration of acetylcholine. Concentration-response curves were generated using a four-parameter logistical equation in XLFit curve fitting software (IDBS, Bridgewater, NJ) for Excel (Microsoft, Redmond, WA) or Prism (GraphPad Software, Inc., San Diego, CA) or the Dotmatics software platform (Dotmatics, Bishop's Stortford, UK).
Compounds were synthesized as described above.

[1] = test system: catalepsy induced by the DA receptor antagonist haloperidol; conditions: cited from earlier work
[2] = M4/Gqi5/CHO-K1 cells, % ACh maximum at 30 μM, read-out: Human M4 Emin (% ACh maximum at 30 μM)
[3] = M4/Gqi5/CHO-K1 cells, decrease of the response to an EC80 concentration of acetylcholine, read-out: Human M4 IC50

| SMILES | remaining activity at 30 µM (Human M4; [2]) | IC50 (Human M4; [3]) | further results |
| --- | --- | --- | --- |
| [2H]C([2H])(C1CCOC(C)(C)C1)N1C[C@H]2C[C@H](Nc3ccc(-c4ccc5nn(C)cc5c4C)nn3)C[C@H]2C1 (stereo partly drawn) [compound 18, (3aR,5s,6aS)-N-(6-(2,4-dimethyl-2H-indazol-5-yl)pyridazin-3-yl)-2-((2,2-dimethyltetrahydro-2H-pyran-4-yl)methyl-d2)octahydrocyclopenta[c]pyrrol-5-amine] | 4% | 0.99 nM |  |
| [2H]C1([2H])CC(C([2H])([2H])N2C[C@H]3C[C@H](Nc4ccc(-c5ccc6nn(C)cc6c5C)nn4)C[C@H]3C2)CC([2H])([2H])O1 [compound 21, (3aR,5s,6aS)-N-(6-(2,4-dimethyl-2H-indazol-5-yl)pyridazin-3-yl)-2-((tetrahydro-2H-pyran-4-yl-2,2,6,6-d4)methyl-d2)octahydrocyclopenta[c]pyrrol-5-amine] | 3% | 0.4 nM |  |
| [2H]C([2H])(C1CCOCC1)N1C[C@H]2C[C@H](Nc3ccc(-c4ccc5nn(C([2H])([2H])[2H])cc5c4C(F)F)nn3)C[C@H]2C1 [compound 22, (3aR,5s,6aS)-N-(6-(4-(difluoromethyl)-2-(methyl-d3)-2H-indazol-5-yl)pyridazin-3-yl)-2-((tetrahydro-2H-pyran-4-yl)methyl-d2)octahydrocyclopenta[c]pyrrol-5-amine] | 4% | 0.65 nM |  |
| [2H]C1([2H])CC(C([2H])([2H])N2C[C@H]3C[C@H](Nc4nnc(-c5ccc6nn(C)cc6c5C)cc4C)C[C@H]3C2)CC([2H])([2H])O1 [compound 24, (3aR,5s,6aS)-N-(6-(2,4-dimethyl-2H-indazol-5-yl)-4-methylpyridazin-3-yl)-2-((tetrahydro-2H-pyran-4-yl-2,2,6,6-d4)methyl-d2)octahydrocyclopenta[c]pyrrol-5-amine] | 3% | 0.21 nM |  |
| Cc1c(-c2nnc(N[C@H]3C[C@@H]4CN(CC5CCOCC5)C[C@@H]4C3)c3ccsc23)ccc2nn(C)cc12 [compound 25, 7-(2,4-dimethyl-2H-indazol-5-yl)-N-((3aR,5s,6aS)-2-((tetrahydro-2H-pyran-4-yl)methyl)-octahydrocyclopenta[c]pyrrol-5-yl)-thieno[2,3-d]pyridazin-4-amine] |  |  | IC50 (Human M4): 0.5 nM; remaining activity at 30 µM (Human M4; CHO-K1, read-out: Human M4 Emin (% ACh maximum at 30 μM)): 7% |
| [2H]C([2H])(C1CCOCC1)N1C[C@H]2C[C@H](Nc3nnc(-c4ccc5nn(C)cc5c4C)cc3C)C[C@H]2C1 [compound 28, (3aR,5s,6aS)-N-(6-(2,4-dimethyl-2H-indazol-5-yl)-4-methylpyridazin-3-yl)-2-((tetrahydro-2H-pyran-4-yl)methyl-d2)octahydrocyclopenta[c]pyrrol-5-amine] | 17% |  |  |
| CN1[C@@H]2C[C@@H](OC(=O)[C@H](CO)c3ccccc3)C[C@H]1[C@@H]1O[C@@H]12 [scopolamine] |  |  | reduction of haloperidol-induced catalepsy ([1]; M4 KO mice): ineffective; reversal of haloperidol-induced catalepsy ([1]; WT mice): completely reversed |

Now from value to molecule, other results behind:

| remaining activity at 30 µM (Human M4; [2]) | IC50 (Human M4; [3]) | SMILES | further results |
| --- | --- | --- | --- |
| 5% | 5 nM | [2H]C([2H])(C1CC(C)(C)OC(C)(C)C1)N1C[C@H]2C[C@H](Nc3ccc(-c4ccc5nn(C)cc5c4C)nn3)C[C@H]2C1 [compound 19, (3aR,5s,6aS)-N-(6-(2,4-dimethyl-2H-indazol-5-yl)pyridazin-3-yl)-2-((2,2,6,6-tetramethyltetrahydro-2H-pyran-4-yl)methyl-d2)octahydrocyclopenta[c]pyrrol-5-amine] |  |
| 4% | 0.99 nM | [2H]C([2H])(N1C[C@H]2C[C@H](Nc3ccc(-c4ccc5nn(C)cc5c4C)nn3)C[C@H]2C1)C1(F)CCOCC1 [compound 20, (3aR,5s,6aS)-N-(6-(2,4-dimethyl-2H-indazol-5-yl)pyridazin-3-yl)-2-((4-fluorotetrahydro-2H-pyran-4-yl)methyl-d2)octahydrocyclopenta[c]pyrrol-5-amine] |  |
| 4% | 1.8 nM | [2H]C([2H])(N1C[C@H]2C[C@H](Nc3ccc(-c4ccc5nn(C)cc5c4C)nn3)C[C@H]2C1)C(F)(F)C1CCOCC1 [compound 23, (3aR,5s,6aS)-2-(2,2-difluoro-2-(tetrahydro-2H-pyran-4-yl)ethyl-1,1-d2)-N-(6-(2,4-dimethyl-2H-indazol-5-yl)-pyridazin-3-yl)octahydrocyclopenta[c]pyrrol-5-amine] |  |
| 4% | 0.79 nM | COc1cc(-c2ccc3nn(C)cc3c2C)nnc1N[C@H]1C[C@@H]2CN(CC3CCOCC3)C[C@@H]2C1 [compound 26, (3aR,5s,6aS)-N-(6-(2,4-dimethyl-2H-indazol-5-yl)-4-methoxypyridazin-3-yl)-2-((tetrahydro-2H-pyran-4-yl)-methyl)octahydrocyclopenta[c]pyrrol-5-amine] |  |
| 3% | 0.76 nM | Cc1cc(N[C@H]2C[C@@H]3CN(CC4CCOCC4)C[C@@H]3C2)nnc1-c1ccc2nn(C)cc2c1C [compound 27, (3aR,5s,6aS)-N-(6-(2,4-dimethyl-2H-indazol-5-yl)-5-methylpyridazin-3-yl)-2-((tetrahydro-2H-pyran-4-yl)methyl)octahydrocyclopenta[c]pyrrol-5-amine] |  |
| 3% |  | Cc1c(-c2cc(C(F)F)c(N[C@H]3C[C@@H]4CN(CC5CCOCC5)C[C@@H]4C3)nn2)ccc2nn(C)cc12 [compound 29, (3aR,5s,6aS)-N-(4-(difluoromethyl)-6-(2,4-dimethyl-2H-indazol-5-yl)pyridazin-3-yl)-2-((tetrahydro-2H-pyran-4-yl)methyl)octahydrocyclopenta[c]pyrrol-5-amine] |  |
| 2% |  | Cc1c(-c2cc(C(F)(F)F)c(N[C@H]3C[C@@H]4CN(CC5CCOCC5)C[C@@H]4C3)nn2)ccc2nn(C)cc12 [compound 30, (3aR,5s,6aS)-N-(6-(2,4-dimethyl-2H-indazol-5-yl)-4-(trifluoromethyl)-pyridazin-3-yl)-2-((tetrahydro-2H-pyran-4-yl)methyl)-octahydrocyclopenta[c]pyrrol-5-amine] |  |
